The kinact is the maximal first-order rate at which the target is inactivated.

Experiment [1] deals with RNA Polymerase II Serine 5 phosphorylation in A549 cells overexpressing CDK7-mutant (C312S). The experiment in a line: Imaging-based cellular RNA PolII Ser5 phosphorylation assay in A549 cells overexpressing CDK7-mutant (C312S). The conditions noted are these: RNA PolII Ser5 phosphorylation, averaged over all measurements; for IC50: Homo sapiens, A549, A549 cells overexpressing CDK7-mutant (C312S), read-out: CDK7_A549 mutant hCDK7(pIC50) (converted); for CDK7_A549 mutant hCDK7(pIC50): A549 cells overexpressing CDK7-mutant (C312S). The format is cell-based, human. The method, boiled down:
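A549 cells overexpressing CDK7 C312S (with endogenous wild-type CDK7) were treated with compound for 3 h at 37 °C in 1% FBS medium. Phospho-Rpb1 CTD Ser5 was immunostained after fixation and imaged. IC50 came from curve fit of % control, normalised to DMSO and 10 μM reference-compound controls.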

Experiment [2] deals with RNA Polymerase II Serine 5 phosphorylation (Rpb1 CTD, downstream substrate of CDK7) in A549 cells. Nature of the experiment: Imaging-based cellular RNA PolII Ser5 phosphorylation assay in A549 cells. The class given is cell-based, human. Particulars: wild-type CDK7, RNA PolII Ser5 phosphorylation, averaged over all measurements; for IC50: Homo sapiens, A549, A549 cells, read-out: CDK7_A549 Wild-type CDK7 (pIC50) (converted); for CDK7_A549 Wild-type CDK7 (pIC50): A549 cells. The method, boiled down:
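A549 cells, seeded 1000/well in DMEM with 1% FBS and cultured 20 h, were treated with compound for 3 h at 37 °C. Ser5-phospho-Rpb1 CTD detected by immunofluorescence imaging after fixation and methanol permeabilization; IC50 from curve fit normalized to DMSO and 10 μM reference-compound controls.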

The target of experiment [3] is CDK7/cyclinH/MAT1 trimeric complex (Homo sapiens, UniProt P50613). The experiment in a line: In vitro CDK7 assay, potency of irreversible covalent inhibitors (kinact/KI), coupled PK/LDH ADP readout at 340 nm. The conditions noted are these: for Ki: CDK7 (20 nM enz.) (KI, μM); for Ki / CDK7 (20 nM enz.) (kinact, s^−1) / CDK7 (20 nM enz.) (kinact/KI, M^−1*s^−1) / CDK7 (20 nM enz.) (kobs/[I], M^−1*s^−1): 20 nM enzyme; for kinact: read-out: CDK7 (20 nM enz.) (kinact, s^−1), 20 nM enzyme.
Chain of CDK7/cyclinH/MAT1 trimeric complex (P50613 whole entry): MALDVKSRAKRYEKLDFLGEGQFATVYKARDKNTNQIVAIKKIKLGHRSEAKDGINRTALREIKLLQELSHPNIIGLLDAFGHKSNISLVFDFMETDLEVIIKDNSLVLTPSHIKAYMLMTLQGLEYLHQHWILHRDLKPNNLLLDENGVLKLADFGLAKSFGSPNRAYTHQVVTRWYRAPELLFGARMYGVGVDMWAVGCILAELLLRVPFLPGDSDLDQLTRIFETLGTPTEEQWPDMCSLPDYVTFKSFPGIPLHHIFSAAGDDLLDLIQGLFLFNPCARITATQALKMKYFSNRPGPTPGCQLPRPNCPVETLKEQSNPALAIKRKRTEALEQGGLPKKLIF
Chain of CDK7/cyclinH/MAT1 trimeric complex (P51946 whole entry partner): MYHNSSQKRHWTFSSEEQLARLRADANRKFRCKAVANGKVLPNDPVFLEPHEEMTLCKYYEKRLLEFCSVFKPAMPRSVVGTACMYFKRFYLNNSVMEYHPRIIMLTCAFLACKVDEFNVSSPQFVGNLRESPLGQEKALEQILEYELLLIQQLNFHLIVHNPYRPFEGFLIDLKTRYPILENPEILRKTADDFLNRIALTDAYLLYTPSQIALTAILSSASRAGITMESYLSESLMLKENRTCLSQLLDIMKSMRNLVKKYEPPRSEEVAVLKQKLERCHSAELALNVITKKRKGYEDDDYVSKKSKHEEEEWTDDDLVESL
Chain of CDK7/cyclinH/MAT1 trimeric complex (P51948 whole entry partner): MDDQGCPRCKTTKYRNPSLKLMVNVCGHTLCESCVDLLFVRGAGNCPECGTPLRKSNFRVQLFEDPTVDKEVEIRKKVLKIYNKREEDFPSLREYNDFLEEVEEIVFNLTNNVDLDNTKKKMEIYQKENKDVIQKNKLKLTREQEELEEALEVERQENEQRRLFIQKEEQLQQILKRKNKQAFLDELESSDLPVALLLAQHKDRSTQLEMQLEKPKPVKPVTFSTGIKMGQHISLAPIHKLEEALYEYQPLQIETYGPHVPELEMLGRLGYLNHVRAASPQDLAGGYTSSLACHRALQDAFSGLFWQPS

The mark [4] stands for this setting: read-out: CDK7 (20 nM enz.) (kinact/KI, M^−1*s^−1), 20 nM enzyme.
Where [5] appears, read: read-out: CDK7 (20 nM enz.) (kobs/[I], M^−1*s^−1), 20 nM enzyme.

Like-named read-outs stand apart in the source and are kept apart here.

Regarding `C=CC(=O)N1CCC(N2CCC(c3ccc4c(c3)Nc3nccc(N5CCS(=N)(=O)CC5)c3CO4)CC2)CC1` [Compound 113], the IC50 in experiment [1] was over 10000 nM. In addition, in experiment [2], the IC50 was 380 nM. In experiment [3], the Ki was determined as 0.39 µM and the kinact came out at 6.16e-05 s⁻¹. For the same compound, the kinact/KI in experiment [3] (setting [4]) was 158 M⁻¹ s⁻¹.
Taken in the same sequence, the figures for `C=CC(=O)N1CC(c2ncc(-c3cc(C)c4c(c3)Nc3nccc(C5CCOCC5)c3CO4)cn2)C1` [Compound 114] were over 10000 nM, 50.1 nM, 0.0779 µM, 4.23e-05 s⁻¹ and 543 M⁻¹ s⁻¹.
With `C=CC(=O)N1CC(N2CCC(c3cc(Cl)c4c(c3)Nc3nccc(N5CCS(=O)(=O)CC5)c3CO4)CC2)C1` [Compound 115], the “CDK7_A549 mutant hCDK7(pIC50)” value in experiment [1] was under 5. Besides, in experiment [2], the “CDK7_A549 Wild-type CDK7 (pIC50)” value is reported as 6.66. In experiment [3], the “CDK7 (20 nM enz.) (kinact, s^−1)” value was 5.802e-05 s⁻¹; the “CDK7 (20 nM enz.) (kinact/KI, M^−1*s^−1)” value is 1193.86 M⁻¹ s⁻¹; the Ki worked out at 0.0486 µM.
For `C=CC(=O)N1CCC(c2nc(C)c(-c3cc(C)c4c(c3)Nc3nccc(C5CCOCC5)c3CO4)c(C)n2)CC1` [Compound 116], in experiment [1], the IC50 was over 10000 nM. Also, in experiment [2], the IC50 was 398 nM. Besides, in experiment [3], the Ki turned out to be 0.293 µM and the kinact was found to be 5.05e-05 s⁻¹. In experiment [3] (setting [4]), the kinact/KI worked out at 173 M⁻¹ s⁻¹.
Taken in the same sequence, the figures for `C=CC(=O)N1CCC(N2CC(c3cc(F)c4c(c3)Nc3nccc(-c5cnn(C)c5)c3CO4)C2)CC1` [Compound 117] were 7760 nM, 126 nM, 0.0512 µM, 4.56e-05 s⁻¹ and 891 M⁻¹ s⁻¹.
Take `C#Cc1cc(C2CCN(C3CN(C(=O)C=C)C3)CC2)cc2c1OCc1c(C3CCOCC3)ccnc1N2` [Compound 118]: the IC50 is over 10000 nM in experiment [1] and 70.8 nM in experiment [2]. In addition, the kinact/KI in experiment [3] (setting [5]) is 1620 M⁻¹ s⁻¹.
In the case of `C=CC(=O)N1CC(N2CCC(c3cc(Cl)c4c(c3)Nc3nccc(C5CCOCC5)c3CO4)CC2)C1` [Compound 119], the “CDK7_A549 mutant hCDK7(pIC50)” value in experiment [1] is under 5. In addition, the “CDK7_A549 Wild-type CDK7 (pIC50)” value in experiment [2] was 7.42. Moreover, the “CDK7 (20 nM enz.) (kobs/[I], M^−1*s^−1)” value in experiment [3] was 1611.37 M⁻¹ s⁻¹.
Take `C#Cc1cc2c(cc1C1CCN(C3CN(C(=O)C=C)C3)CC1)Nc1nccc(C3CCOCC3)c1CO2` [Compound 120]: in experiment [1], the IC50 was over 10000 nM. For the same compound, the IC50 in experiment [2] was 331 nM. In experiment [3], the Ki worked out at 0.0783 µM and the kinact was 8.13e-05 s⁻¹. Moreover, the kinact/KI in experiment [3] (setting [4]) was found to be 1040 M⁻¹ s⁻¹.
With `C=CC(=O)N1CC(N2CCC(c3ccc4c(c3)Nc3nccc(N5CCOCC5)c3CO4)CC2)C1` [Compound 121], the “CDK7_A549 mutant hCDK7(pIC50)” value in experiment [1] was under 5. Further, in experiment [2], the “CDK7_A549 Wild-type CDK7 (pIC50)” value is 6.9. Besides, in experiment [3], the “CDK7 (20 nM enz.) (kinact, s^−1)” value stood at 9.753e-05 s⁻¹; the “CDK7 (20 nM enz.) (kinact/KI, M^−1*s^−1)” value is 1012.54 M⁻¹ s⁻¹; the Ki was 0.0963 µM.
For the compound `C#CCCN(C)C/C=C/C(=O)N1CC(N2CCC(c3cc(C)c4c(c3)Nc3nccc(N5CCOCC5)c3CO4)CC2)C1` [Compound 122], the IC50 in experiment [1] was over 10000 nM; in experiment [2] it was 69.2 nM. In addition, in experiment [3] (setting [5]), the kinact/KI is 1660 M⁻¹ s⁻¹.
Turning to `C=CC(=O)N1CC(N2CCC(c3ccc4c(c3)Nc3nccc(C5CCOCC5)c3CO4)CC2)C1` [Compound 123], the “CDK7_A549 mutant hCDK7(pIC50)” value in experiment [1] is listed as under 5. Besides, in experiment [2], the “CDK7_A549 Wild-type CDK7 (pIC50)” value came out at 7.15. For the same compound, in experiment [3], the Ki was found to be 0.0244 µM and the kinact was 3.4e-05 s⁻¹. Further, the kinact/KI in experiment [3] (setting [4]) was 1390 M⁻¹ s⁻¹.
Consider `C#CCCN(C)C/C=C/C(=O)N1CC(N2CCC(c3cc(C)c4c(c3)Nc3nccc(C5CCOCC5)c3CO4)CC2)C1` [Compound 124], for which the IC50 is over 10000 nM in experiment [1] and 97.7 nM in experiment [2]. Besides, the kinact/KI in experiment [3] (setting [5]) turned out to be 1550 M⁻¹ s⁻¹.
Taken in the same sequence, the figures for `C=CC(=O)N1CC(N2CCC(c3cc(C#N)c4c(c3)Nc3nccc(C5CCOCC5)c3CO4)CC2)C1` [Compound 125] were 7240 nM, 27.5 nM and 1230 M⁻¹ s⁻¹.
Consider `C=CC(=O)N1CC(N2CCC(c3cc(F)c4c(c3)Nc3nccc(-c5cnn(C)c5)c3CO4)CC2)C1` [Compound 126], for which the IC50 in experiment [1] was over 10000 nM; in experiment [2] it was 47.9 nM. The “CDK7 (20 nM enz.) (kobs/[I], M^−1*s^−1)” value in experiment [3] came to 875.576 M⁻¹ s⁻¹.
`C=CC(=O)N1CC(c2nc(C)c(-c3cc(C)c4c(c3)Nc3nccc(C5CCOCC5)c3CO4)c(C)n2)C1` [Compound 129]: the IC50 in experiment [1] was over 10000 nM. For the same compound, the IC50 in experiment [2] was 151 nM. Also, in experiment [3], the Ki turned out to be 0.17 µM and the kinact came to 5.48e-05 s⁻¹. In addition, the kinact/KI in experiment [3] (setting [4]) amounted to 323 M⁻¹ s⁻¹.
Taken in the same sequence, the figures for `C=CC(=O)N1CC(N2CCC(c3cc4c(cn3)OCc3c(C5CCOCC5)ccnc3N4)CC2)C1` [Compound 130] were over 10000 nM, 97.7 nM, 0.11 µM, 7.73e-05 s⁻¹ and 704 M⁻¹ s⁻¹.
Taken in the same sequence, the figures for `C=CC(=O)N1CC(N2CCC(c3ccc4c(c3)Nc3nccc(N5CCc6nn(C)cc6C5)c3CO4)CC2)C1` [Compound 132] were over 10000 nM, 363 nM, 0.312 µM, 7.08e-05 s⁻¹ and 227 M⁻¹ s⁻¹.
For the compound `C=CC(=O)N1CC(N2CCC(c3cc(C)c4c(c3)Nc3nccc(C5CCS(=O)(=O)CC5)c3CO4)CC2)C1` [Compound 133], the IC50 is over 10000 nM in experiment [1] and 166 nM in experiment [2]. This compound displayed a Ki in experiment [3] of 0.0971 µM. Also, in experiment [3], the kinact worked out at 6.94e-05 s⁻¹. The kinact/KI in experiment [3] (setting [4]) stood at 715 M⁻¹ s⁻¹.
Taken in the same sequence, the figures for `C=CC(=O)N1CC(N2CCC(c3cc4c(c(C(=O)NC)c3)OCc3c(C5CCOCC5)ccnc3N4)CC2)C1` [Compound 135] were about 7080 nM, 263 nM, 0.0578 µM, 5.71e-05 s⁻¹ and 988 M⁻¹ s⁻¹.
Taken in the same sequence, the figures for `C=CC(=O)N1CCC(N2CC(c3cc(F)c4c(c3)Nc3nccc(N5CCOCC5)c3CO4)C2)CC1` [Compound 136] were 7240 nM, 72.4 nM, 0.0603 µM, 4.42e-05 s⁻¹ and 734 M⁻¹ s⁻¹.
Taken in the same sequence, the figures for `C=CC(=O)N1CC(N2CCC(c3cc4c(cn3)OCc3c(N5CCOCC5)ccnc3N4)CC2)C1` [Compound 137] were over 10000 nM, 126 nM, 0.0382 µM, 6.41e-05 s⁻¹ and 1680 M⁻¹ s⁻¹.
On to `C=CC(=O)N1CC(N2CCC(c3cc4c(cc3CO)OCc3c(N5CCOCC5)ccnc3N4)CC2)C1` [Compound 139], for which the IC50 in experiment [1] was over 10000 nM. For the same compound, in experiment [2], the IC50 is 661 nM. For the same compound, in experiment [3], the Ki was 0.515 µM and the kinact is 6.73e-05 s⁻¹. In experiment [3] (setting [4]), the kinact/KI was determined as 131 M⁻¹ s⁻¹.
Taken in the same sequence, the figures for `C=CC(=O)N1CC(N2CCC(O)(c3cc(C)c4c(c3)Nc3nccc(N5CCOCC5)c3CO4)CC2)C1` [Compound 140] were over 10000 nM, 117 nM, 0.0741 µM, 6.51e-05 s⁻¹ and 878 M⁻¹ s⁻¹.
Taken in the same sequence, the figures for `C=CC(=O)N1CC(N2CCC(c3cc(F)c4c(c3)Nc3nccc(N5CCS(=O)(=O)CC5)c3CO4)CC2)C1` [Compound 141] were over 10000 nM, 178 nM, 0.16 µM, 8.36e-05 s⁻¹ and 523 M⁻¹ s⁻¹.
On to `C#CCCN(C)C/C=C/C(=O)N1CC(N2CCC(c3ccc4c(c3)Nc3nccc(N5CCOCC5)c3C(C)O4)CC2)C1` (centres unmarked) [Compound 146], for which the IC50 in experiment [1] was over 10000 nM; in experiment [2] it was 214 nM. This compound also yielded a Ki in experiment [3] of 0.0285 µM. In addition, the kinact in experiment [3] amounted to 5.53e-05 s⁻¹. Besides, the kinact/KI in experiment [3] (setting [4]) was 1940 M⁻¹ s⁻¹.
Taken in the same sequence, the figures for `C#CCCN(C)C/C=C/C(=O)N1CC(N2CCC(c3ccc4c(c3)Nc3nccc(C5CCOCC5)c3C(C)O4)CC2)C1` (centres unmarked) [Compound 147] were over 10000 nM, 288 nM, 0.0278 µM, 5.84e-05 s⁻¹ and 2100 M⁻¹ s⁻¹.
Taken in the same sequence, the figures for `C=CC(=O)N1CCC(N2CC(c3cc(Cl)c4c(c3)Nc3nccc(C5CCOCC5)c3CO4)C2)CC1` [Compound 148] were 5500 nM, 37.2 nM, 0.0507 µM, 3.38e-05 s⁻¹ and 666 M⁻¹ s⁻¹.
As for `C=CC(=O)N1CC(N2CCC(c3ccc4c(c3)Nc3ncc(F)c(N5CCOCC5)c3CO4)CC2)C1` [Compound 151], the IC50 in experiment [1] is over 10000 nM; in experiment [2], 34.7 nM. In addition, the Ki in experiment [3] turned out to be 0.0205 µM. Besides, the kinact in experiment [3] is 4.67e-05 s⁻¹. The kinact/KI in experiment [3] (setting [4]) came out at 2280 M⁻¹ s⁻¹.
